Assay results from publication PMC11748689, “Pharmacological and structural understanding of the Trypanosoma cruzi proteasome provides key insights for developing site-specific inhibitors” (The Journal of Biological Chemistry, 2024).

Columns and labels:
[1] = target: recombinant WT T. cruzi proteasome (chymotrypsin-like activity, β5) (Trypanosoma cruzi, UniProt V5BU39+V5C017); assay: biochemical; type: biochemical; conditions: for maximum % inhibition plateau, Chymotrypsin Assay, Wild-type: mean ± SD, N = 3 (N = 2 for DDD02091966), (a) mid-point plateau from biphasic curve fits
Protocol: (§1) Chymotrypsin-, trypsin-, and caspase-like activity assays were performed using a commercially available Proteasome-Glo 3-substrate system assay kit (catalog number G8532) (Promega Corporation) according to the manufacturers protocols and as previously described ([24]).
(§2) Prior to running assays, Proteasome-Glo buffer was used to reconstitute the luciferin detection reagent (containing a recombinant thermostable luciferase enzyme). The resuspended luciferin detection reagent was then mixed with Proteasome-Glo chymotrypsin-, trypsin- or caspase-like substrates (either 40 μM suc-Leu-Leu-Val-Tyr-aminoluciferin, 30 μM Z-Leu-Arg-Arg-aminoluciferin (Z is benzyloxycarbonyl) or 40 μM Z-Nle-Pro-Nle-Asp-aminoluciferin respectively (these concentrations represent 2x final assay concentrations)). These substrate mixtures were allowed to incubate at room temperature for 60 min prior to use to allow the removal of any contaminating free aminoluciferin.
Proteasome assays were carried out using 384-well, white, low-volume plates (catalog number 784904) (Greiner Bio-One) at room temperature (∼23 °C) in 8 μl reaction volumes. When activity checks were to be run in the presence or absence of a fixed concentration of proteasome inhibitor, 80 nL of the inhibitor (at a concentration 100x the required final assay concentration), or 80 nL dimethylsulfoxide (DMSO), were dispensed into assay plates using an Echo 550 acoustic dispenser (Labcyte).
A 1 in 2 dilution series of the various T. cruzi proteasome samples (native, recombinant WT, β4^R mutant, and Δβ1Δβ2 mutant) were produced in assay buffer (50 mM Tris–HCl, pH 7.5, 10 mM sucrose, 5 mM MgCl2, 1 mM DTT, 2 mM ATP, 150 mM NaCl, 1 mM EDTA, and 0.05 mg/ml bovine serum albumin). Subsequently, 4 μl of the various concentrations of diluted proteasome were added to assay plates using an electronic multichannel pipette (Integra Biosciences Ltd). When kinetic read activity checks were performed (Fig. 2), proteasome final assay concentrations used were 115 μg/ml, 115 μg/ml, and 230 μg/ml native proteasome (in the chymotrypsin, trypsin, and caspase assays, respectively), and 4.1 μg/ml, 3.4 μg/ml, or 1.4 μg/ml recombinant WT proteasome (in the chymotrypsin, trypsin, and caspase assays, respectively). When activity checks were to be run in the presence or absence of a proteasome inhibitor plates containing inhibitor or DMSO control were incubated with the relevant proteasome sample for 60 min at room temperature (this step was not included in activity check experiments where compounds were not used).
Following the 60 min incubation of proteasome and compound (if required), assays were initiated with the addition of 4 μl of substrate mix (containing substrate and the luciferin detection reagent) using an electronic multichannel pipette. Final assay concentrations of substrates used were either 20 μM Suc-Leu-Leu-Val-Tyr-aminoluciferin, 15 μM Z-Leu-Arg-Arg-aminoluciferin, or 20 μM Z-Nle-Pro-Nle-Asp-aminoluciferin for chymotrypsin-, trypsin- or caspase-like activity respectively.
Luminescence was read either kinetically or as an endpoint read using an EnVision 2102 Multilabel Reader (PerkinElmer, Inc) with 0.2 s per well reading time. When kinetic assays were run, luminescence was read every 5 min for 90 min. Endpoint assays were run for 60 min before luminescence was read. All data processing and linear fit analyses were performed using Microsoft Excel for Microsoft 365 software (Redmond, Washington; https://www.microsoft.com/).
(§3) When proteasome inhibitors were to be screened in the chymotrypsin, trypsin, and caspase assays, test compounds were dispensed into assay wells using an ECHO 550 acoustic dispenser (Labcyte) (final DMSO concentration 1%). Compounds were tested in either a 10-point concentration series (30 μM top final assay concentration, 1 in 3 dilution series) or a 12-point concentration series (30 μM top final assay concentration, 1 in 2.5 dilution series).

[2] = target: native T. cruzi proteasome (trypsin-like activity, β2) (Trypanosoma cruzi, UniProt V5BCU3); assay: Trypsin-like activity assay (Proteasome-Glo), native T. cruzi proteasome; type: biochemical; conditions: mean ± SD, N = 3; read-out: pIC50, Trypsin Assay, Native (converted)
Protocol: as §1, §2, §3
(§4) Proteasome assays were then performed as described above using Promega Proteasome-Glo 3-substrate system assay kit. […] Diluted proteasome (4 μl) was added to assay plates using an electronic multichannel pipette (Integra Biosciences Ltd) and the proteasome incubated with compound for 60 min at room temperature.
(§5) Following the 60 min incubation of proteasome and compounds, assays were initiated with the addition of 4 μl of a substrate mix (containing substrate and the luciferin detection reagent) using an electronic multichannel pipette. Final assay concentrations of substrates used were either 20 μM Suc-Leu-Leu-Val-Tyr-aminoluciferin, 15 μM Z-Leu-Arg-Arg-aminoluciferin, or 20 μM Z-Nle-Pro-Nle-Asp-aminoluciferin for chymotrypsin-, trypsin-, or caspase-like activity, respectively. Following a further 60 min assay incubation, luminescence was read using an EnVision 2102 Multilabel Reader (PerkinElmer, Inc) with 0.2 s per well reading time.
(§6) All data processing was performed using Microsoft Excel for Microsoft 365 software.
(§7) Nonlinear dose-response curve fitting was carried out using the Microsoft Excel add-in, XLfit (IDBS). Percentage inhibition data were either fitted to a standard 4-parameter logistic fit model (XLfit model 205; Equation 2) or a biphasic model (either XLfit model 300; Equation 3 or a custom biphasic model; Equation 4 (used in cases where the top and/or bottom parameters deviated from 100%/0% inhibition)).(2) y=A+(B−A)/1+(C/x)^D Where A = % inhibition at bottom, B = % inhibition at top, C = IC50, D = slope, x = inhibitor concentration and y = % inhibition.(3) y=(A/(1+10^(C−log(x))∗B))+((100−A)/(1+10^(D−log(x))∗B)) With A = % inhibition at midplateau, B = slope, C = log(IC50^A), D = log(IC50^B)).
(§8) All IC50 data generated were converted to pIC50 using Equation 5.

[3] = target: recombinant WT T. cruzi proteasome (trypsin-like activity, β2) (Trypanosoma cruzi, UniProt V5BCU3); assay: biochemical; type: biochemical; conditions: for IC50: mean ± SD, N = 3, read-out: pIC50, Trypsin Assay, Wild-type (converted)
Protocol: as §1, §2, §3, §4, §5, §6, §7, §8

[4] = target: native T. cruzi proteasome (caspase-like activity, β1) (Trypanosoma cruzi, UniProt V5BHX1); assay: Caspase-like activity assay (Proteasome-Glo), native T. cruzi proteasome; type: biochemical; conditions: mean ± SD, N = 3; read-out: pIC50, Caspase Assay, Native (converted)
Protocol: as §1, §2, §3, §4, §5, §6, §7, §8

[5] = test system: intracellular T. cruzi Silvio X10/7 A1 amastigotes; assay: Intracellular T. cruzi assay; type: cell-based; conditions: Trypanosoma cruzi; 96 h compound treatment, Vero host cells; given as [mean pEC50, SD, N]; read-out: Mean pEC50 against intracellular T. cruzi parasites (converted)
Protocol: Potency against intracellular T. cruzi Silvio X10/7 A1 amastigotes was determined as described previously ([53]), with a sole modification that the compound treatment duration was 96 h instead of 72 h. Vero host cells were obtained from The European Collection of Authenticated Cell Cultures (cat. number 84113001) and tested for mycoplasma (negative). T. cruzi Silvio X10/7 A1 was obtained from Prof. Alan Fairlamb, and discrete typing unit confirmed by genotyping ([53]).

Chain of recombinant WT T. cruzi proteasome (chymotrypsin-like activity, β5) (V5BGL9 entry or part of it): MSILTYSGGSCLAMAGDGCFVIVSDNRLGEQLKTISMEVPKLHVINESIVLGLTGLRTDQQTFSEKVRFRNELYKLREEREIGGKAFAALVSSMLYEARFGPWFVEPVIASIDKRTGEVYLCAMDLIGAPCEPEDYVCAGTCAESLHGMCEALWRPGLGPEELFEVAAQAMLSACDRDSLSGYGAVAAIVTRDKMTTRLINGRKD
Chain of recombinant WT T. cruzi proteasome (chymotrypsin-like activity, β5) (V5BU39 entry or part of it): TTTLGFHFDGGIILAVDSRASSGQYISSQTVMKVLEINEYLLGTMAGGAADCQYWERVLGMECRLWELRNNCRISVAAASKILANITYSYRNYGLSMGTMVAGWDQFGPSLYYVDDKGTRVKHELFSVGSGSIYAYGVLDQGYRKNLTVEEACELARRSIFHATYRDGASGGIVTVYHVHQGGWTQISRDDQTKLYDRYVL
Chain of recombinant WT T. cruzi proteasome (chymotrypsin-like activity, β5) (V5C017 entry or part of it): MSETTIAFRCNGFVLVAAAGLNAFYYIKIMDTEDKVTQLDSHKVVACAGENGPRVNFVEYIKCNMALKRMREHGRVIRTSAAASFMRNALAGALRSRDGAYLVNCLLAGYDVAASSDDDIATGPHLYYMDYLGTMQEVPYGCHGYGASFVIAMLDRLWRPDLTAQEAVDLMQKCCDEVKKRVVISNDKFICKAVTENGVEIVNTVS

| SMILES | IC50 [1] [nM] | inhibition of chymotrypsin activity, recombinant WT proteasome, fixed concentration ([1]; 1 μM compound, endpoint activity vs proteasome concentration (Fig. 7A)) | maximum % inhibition plateau, Chymotrypsin Assay, Wild-type [1] [%] | IC50 [2] [nM] | IC50 [3] [nM] | IC50 [4] [nM] | EC50 [5] [nM] | inhibition of the trypsin activity ([3]; native and recombinant T. cruzi proteasomes) |
| --- | --- | --- | --- | --- | --- | --- | --- | --- |
| O=C(Nc1ccc(F)c(-c2cn3nc(-c4ccccc4)cnc3n2)c1)N1CCCC1 [DDD01012248] | 52.5 | partial inhibition | 67.7 ± 4.0 | > 30200 | > 30200 | > 30200 | 20 |  |
| O=C(Nc1ccc(F)c(C(=O)NC2CC2)c1)c1ccc(COc2ccccc2)o1 [DDD02091966, N-(3-(cyclopropylcarbamoyl)-4-fluorophenyl)-5-(phenoxymethyl)furan-2-carboxamide] | 34.7 |  | 51.6 ± 1.8 | > 30200 | > 30200 | > 30200 | 251 | no inhibition |
